Measurements taken from ChEMBL document CHEMBL3525998, “Metabolism of saikosaponin a in rats: diverse oxidations on the aglycone moiety in liver and intestine in addition to hydrolysis of glycosidic bonds” (Drug Metab Dispos, 2013).

Assays:
Assay type in all cases: ADME, organism-based
Plasma [1] = experiment: Drug level in Sprague-Dawley rat plasma treated with saikosaponin a at 15 mg/kg, iv by LC-DAD-IT-TOF-MS analysis; parameters: dose 15 mg/kg, route intravenous; settings: in vivo
[2] = Drug excretion in Sprague-Dawley rat urine treated with saikosaponin a at 15 mg/kg, iv by LC-DAD-IT-TOF-MS analysis; parameters: dose 15 mg/kg, route intravenous; settings: in vivo
[3] = Drug excretion in Sprague-Dawley rat feces treated with saikosaponin a at 15 mg/kg, iv by LC-DAD-IT-TOF-MS analysis; parameters: dose 15 mg/kg, route intravenous; settings: in vivo
[4] = Drug excretion in Sprague-Dawley rat feces treated with saikosaponin a at 50 mg/kg, po administered through gavage by LC-DAD-IT-TOF-MS analysis; parameters: dose 50 mg/kg, route oral; settings: in vivo
Rattus norvegicus = organism: Rattus norvegicus; experiment: Drug level in Sprague-Dawley rat assessed as retention time treated with saikosaponin a by LC-DAD-IT-TOF-MS analysis
[5] = Drug recovery in po dosed rat excreted feces measured over 0 to 24 hrs after drug administration by HPLC analysis relative to starting drug dose; settings: faeces, read-out: Drug recovery
[6] = Drug excretion in Sprague-Dawley rat bile treated with saikosaponin a at 15 mg/kg, iv by LC-DAD-IT-TOF-MS analysis; parameters: dose 15 mg/kg, route intravenous; settings: in vivo
[7] = Drug excretion in Sprague-Dawley rat bile treated with saikosaponin a at 50 mg/kg, po administered through gavage by LC-DAD-IT-TOF-MS analysis; parameters: dose 50 mg/kg, route oral; settings: in vivo
Plasma [8] = experiment: Drug level in Sprague-Dawley rat plasma treated with saikosaponin a at 50 mg/kg, po administered through gavage by LC-DAD-IT-TOF-MS analysis; parameters: dose 50 mg/kg, route oral; settings: in vivo
[9] = Drug excretion in Sprague-Dawley rat urine treated with saikosaponin a at 50 mg/kg, po administered through gavage by LC-DAD-IT-TOF-MS analysis; parameters: dose 50 mg/kg, route oral; settings: in vivo

Row | Compound | Drug metabolism (Plasma [1]) | Drug excretion [2] | Drug excretion [3] | Drug excretion [4] | Retention_time (Rattus norvegicus) [min] | dose excreted [5] [%] | Drug excretion [6] | Drug excretion [7] | Drug metabolism (Plasma [8]) | Drug excretion [9]
1 | C[C@H]1O[C@@H](O[C@H]2CC[C@@]3(C)[C@@H](CC[C@]4(C)[C@@H]3C=C[C@]35OC[C@@]6(CCC(C)(C)C[C@H]63)[C@@H](O)C[C@]54C)[C@]2(C)CO)[C@H](O)[C@@H](O)[C@H]1O | metabolite_detected | metabolite_detected | metabolite_detected | metabolite_detected | 45.5 | > 50 | metabolite_detected | metabolite_detected | metabolite_detected | metabolite_detected
2 | CC1(C)CC[C@]23CO[C@@]4(C=C[C@@H]5[C@@]6(C)CCC(=O)[C@@](C)(CO)[C@@H]6CC[C@@]5(C)[C@]4(C)C[C@@H]2O)[C@@H]3C1 |  |  |  | metabolite_detected | 52.3 |  |  |  |  | metabolite_detected
3 | CC1(C)CC[C@]23CO[C@@]4(C=C[C@@H]5[C@@]6(C)CC[C@H](O)[C@@](C)(CO)[C@@H]6CC[C@@]5(C)[C@]4(C(=O)O)C[C@@H]2O)[C@@H]3C1 |  |  | metabolite_detected | metabolite_detected | 18.4 |  |  |  |  | metabolite_detected
4 | C[C@H]1O[C@@H](O[C@H]2CC[C@@]3(C)[C@@H](CC[C@]4(C)[C@@H]3CC=C3[C@@H]5CC(C)(C)CC[C@]5(CO)[C@@H](O)C[C@]34C)[C@]2(C)CO)[C@H](O)[C@@H](O[C@@H]2O[C@H](CO)[C@@H](O)[C@H](O)[C@H]2O)[C@H]1O |  |  |  |  | 22.9 |  | metabolite_detected |  |  | 
5 | CC1(C)CC[C@]23CO[C@@]4(C=C[C@@H]5[C@@]6(C)C=C[C@H](O)[C@@](C)(CO)[C@@H]6CC[C@@]5(C)[C@]4(C)C[C@@H]2O)[C@@H]3C1 |  |  |  | metabolite_detected | 53.7 |  |  |  |  | metabolite_detected
6 | CC1(C)CC[C@]23CO[C@@]4(C=C[C@@H]5[C@@]6(C)CC[C@H](O)[C@@](C)(CO)[C@@H]6CC[C@@]5(C)[C@]4(C)C[C@@H]2O)[C@@H]3C1 |  |  | metabolite_detected | metabolite_detected | 48.3 | > 50 |  |  |  | metabolite_detected
